Measured values published in US6403586B1, “Pyridazine derivatives and drugs containing the same as the active ingredient” (Kowa Co., Ltd., priority 1998, dated 2002).
Several values for one entry are separate records, joined by “and”; a condition that tells them apart may be missing. Equal entries are not always repeated.

| melting point | SMILES |
| --- | --- |
| 109.2 to 109.5 °C | COC(=O)c1cc(-c2ccc(OC)cc2)nn(C)c1=O [Example 1, 4-Methoxycarbonyl-6-(4-methoxyphenyl)-2-methyl-2H-pyridazin-3-one] |
| 106.5 to 107.1 °C and 104.8 to 105.8 °C | CCCn1nc(-c2ccc(OC)cc2)cc(C(=O)OC)c1=O [Example 4, 4-Methoxycarbonyl-6-(4-methoxyphenyl)-2-n-propyl-2H-pyridazin-3-one] |
| 140.6 to 141.1 °C | CCOC(=O)c1cc(-c2ccc(OC)cc2)nn(C(C)C)c1=O [Example 9, 4-Ethoxycarbonyl-2-isopropyl-6-(4-methoxyphenyl)-2H-pyridazin-3-one] |
| 83 to 83.3 °C | CCOC(=O)c1cc(-c2ccc(OC)cc2)nn(CC(C)C)c1=O [Example 10, 4-Ethoxycarbonyl-2-isobutyl-6-(4-methoxyphenyl)-2H-pyridazin-3-one] |
| 80.1 to 80.9 °C | CCOC(=O)c1cc(-c2ccc(OC)cc2)nn(CC2CC2)c1=O [Example 16, 2-Cyclopropylmethyl-4-ethoxycarbonyl-6-(4-methoxyphenyl)-2H-pyridazin-3-one] |
| 100.2 to 101.8 °C | COC(=O)c1cc(-c2ccc(SC)cc2)nn(CC2CC2)c1=O [Example 20, 2-Cyclopropylmethyl-4-methoxycarbonyl-6-[4-(methylthio)phenyl]-2H-pyridazin-3-one] |
| 160 to 161.9 °C | COC(=O)c1cc(-c2ccc(OC)cc2)nn(Cc2ccc(N)cc2)c1=O [Example 26, 2-(4-Aminobenzyl)-4-methoxycarbonyl-6-(4-methoxyphenyl)-2H-pyridazin-3-one] |
| 182.2 to 183.3 °C | COc1ccc(-c2cc(C(N)=O)c(=O)n(CC3CC3)n2)cc1 [Example 39, 4-Carbamoyl-2-cyclopropylmethyl-6-(4-methoxyphenyl)-2H-pyridazin-3-one] |
| 182.2 to 183.3 °C | COc1ccc(-c2cc(C(N)=O)c(=O)n(CC3CCCC3)n2)cc1 [Example 40, 4-Carbamoyl-2-cyclopentylmethyl-6-(4-methoxyphenyl)-2H-pyridazin-3-one] |
| 153.4 to 154.9 °C | CNC(=O)c1cc(-c2ccc(OC)cc2)nn(CC#N)c1=O [Example 46, 2-Cyanomethyl-6-(4-methoxyphenyl)-4-methylcarbamoyl-2H-pyridazin-3-one] |
| 250.1 to 250.8 °C | CNC(=O)Cn1nc(-c2ccc(OC)cc2)cc(C(=O)NC)c1=O [Example 47, 6-(4-Methoxyphenyl)-4-methylcarbamoyl-2-methylcarbamoylmethyl-2H-pyridazin-3-one] |
| 160.3 to 160.6 °C | CNC(=O)c1cc(-c2ccc(OC)cc2)nn(CCO)c1=O [Example 49, 2-(2-Hydroxyethyl)-6-(4-methoxyphenyl)-4-methylcarbamoyl-2H-pyridazin-3-one] |
| 154 to 154.3 °C | CNC(=O)c1cc(-c2ccc(OC)cc2)nn(C(C)C)c1=O [Example 52, 2-Isopropyl-6-(4-methoxyphenyl)-4-methylcarbamoyl-2H-pyridazin-3-one] |
| 103.6 to 104 °C | CNC(=O)c1cc(-c2ccc(OC)cc2)nn(CC=C(C)C)c1=O [Example 57, 6-(4-Methoxyphenyl)-2-(3-methyl-2-butenyl)-4-methylcarbamoyl-2H-pyridazin-3-one] |
| 240.2 to 241.2 °C | CNC(=O)c1cc(-c2ccc(OC)cc2)nn(CC(=O)NCCO)c1=O [Example 59, 2-(2-Hydroxyethyl)carbamoylmethyl-6-(4-methoxyphenyl)-4-methylcarbamoyl-2H-pyridazin-3-one] |
| 101.3 to 101.6 °C | CCCNC(=O)c1cc(-c2ccc(OC)cc2)nn(CC2CC2)c1=O [Example 67, 2-Cyclopropylmethyl-6-(4-methoxyphenyl)-4-n-propylcarbamoyl-2H-pyridazin-3-one] |
| 107.4 to 107.8 °C | CNC(=O)c1cc(-c2ccc(OC)cc2)nn(CC2CCCC2)c1=O [Example 72, 2-Cyclopentylmethyl-6-(4-methoxyphenyl)-4-methylcarbamoyl-2H-pyridazin-3-one] |
| 144.8 to 145.8 °C | COc1ccc(-c2cc(C(=O)NCc3ccccc3)c(=O)n(C)n2)cc1 [Example 77, 4-Benzylcarbamoyl-6-(4-methoxyphenyl)-2-methyl-2H-pyridazin-3-one] |
| 122.4 to 122.9 °C | COc1ccc(-c2cc(C(=O)NCc3ccccn3)c(=O)n(C)n2)cc1 [Example 78, 6-(4-Methoxyphenyl)-2-methyl-4-(2-pyridylmethyl)carbamoyl-2H-pyridazin-3-one] |

Further lines, the molecule ahead of its results:

| SMILES | melting point |
| --- | --- |
| COC(=O)c1cc(-c2ccc(OC)c(OC)c2)nn(CC(C)C)c1=O [Example 11, 6-(3,4-Dimethoxyphenyl)-2-isobutyl-4-methoxycarbonyl-2H-pyridazin-3-one] | 104.2 to 105.5 °C |
| COC(=O)c1cc(-c2ccc(OC)c(F)c2)nn(CC(C)C)c1=O [Example 12, 6-(3-Fluoro-4-methoxyphenyl)-2-isobutyl-4-methoxycarbonyl-2H-pyridaz in-3-one] | 153.3 to 154.9 °C |
| COC(=O)c1cc(-c2ccc(OC)c(OC)c2)nn(CC2CC2)c1=O [Example 17, 2-Cyclopropylmethyl-6-(3,4-dimethoxyphenyl)-4-methoxycarbonyl-2H-pyridazin-3-one] | 136.5 to 137.3 °C |
| COC(=O)c1cc(-c2ccc(OC)c(F)c2)nn(CC2CC2)c1=O [Example 18, 2-Cyclopropylmethyl-6-(3-fluoro-4-methoxyphenyl)-4-methoxycarbonyl-2H-pyridazin-3-one] | 139.6 to 140.7 °C |
| CCOC(=O)c1cc(-c2ccc(OC)cc2)nn(Cc2ccc(Cl)cc2Cl)c1=O [Example 24, 2-(2,4-Dichlorobenzyl)-4-ethoxycarbonyl-6-(4-methoxyphenyl)-2H-pyridazin-3-one] | 135.7 to 136.3 °C |
| COC(=O)c1cc(-c2ccc(OC)cc2)nn(Cc2ccc(NC(=O)c3cccnc3)cc2)c1=O [Example 27, 4-Methoxycarbonyl-6-(4-methoxyphenyl)-2-[4-(3-pyridylcarbonylamino)benzyl]-2H-pyridazin-3-one] | 235.7 to 236.9 °C (dec.) |
| CCOC(=O)c1cc(-c2ccc(OC)cc2)nn(CC=Cc2ccc(Cl)cc2)c1=O [Example 31, 2-(4-Chlorocinnamyl)-4-ethoxycarbonyl-6-(4-methoxyphenyl)-2H-pyridazin-3-one] | 127 to 127.9 °C |
| COC(=O)c1cc(-c2ccc(OC)c(OC)c2)nn(CC=Cc2ccc(Cl)cc2)c1=O [Example 32, 2-(4-Chlorocinnamyl)-6-(3,4-dimethoxyphenyl)-4-methoxycarbonyl-2H-pyridazin-3-one] | 117.5 to 118.7 °C |
| COC(=O)c1cc(-c2ccc(OC)c(F)c2)nn(CC=Cc2ccc(Cl)cc2)c1=O [Example 33, 2-(4-Chlorocinnamyl)-6-(3-fluoro-4-methoxyphenyl)-4-methoxycarbonyl-2H-pyridazin-3-one] | 131.3 to 132.3 °C |
| COC(=O)c1cc(-c2ccc(OC)c(Cl)c2)nn(CC=Cc2ccc(Cl)cc2)c1=O [Example 34, 2-(4-Chlorocinnamyl)-6-(3-chloro-4-methoxyphenyl)-4-methoxycarbonyl-2H-pyridazin-3-one] | 179.7 to 181.6 °C |
| COC(=O)c1cc(-c2ccc(SC)cc2)nn(CC=Cc2ccc(Cl)cc2)c1=O [Example 35, 2-(4-Chlorocinnamyl)-4-methoxycarbonyl-6-[4-(methylthio)phenyl]-2H-pyridazin-3-one] | 123.3 to 126.2 °C |
| COc1ccc(-c2cc(C(N)=O)c(=O)n(CC=Cc3ccc(Cl)cc3)n2)cc1 [Example 42, 4-Carbamoyl-2-(4-chlorocinnamyl)-6-(4-methoxyphenyl)-2H-pyridazin-3-one] | 195.1 to 195.5 °C |
| CNC(=O)c1cc(-c2ccc(OC)c(OC)c2)nn(CC(C)C)c1=O [Example 53, 6-(3,4-Dimethoxyphenyl)-2-isobutyl-4-methylcarbamoyl-2H-pyridazin-3-one] | 111.4 to 112.6 °C |
| CNC(=O)c1cc(-c2ccc(OC)cc2)nn(CC(=O)NCc2ccccn2)c1=O [Example 58, 6-(4-Methoxyphenyl)-4-methylcarbamoyl-2-(2-pyridylmethyl)carbamoylmethyl-2H-pyridazin-3-one] | 194.7 to 195.8 °C |
| CNC(=O)c1cc(-c2ccc(SC)cc2)nn(CC2CC2)c1=O [Example 65, 2-Cyclopropylmethyl-4-methylcarbamoyl-6-[4-(methylthio)phenyl]-2H-pyridazin-3-one] | 116.5 to 118 °C |
| COc1ccc(-c2cc(C(=O)NCc3ccccc3)c(=O)n(CC3CC3)n2)cc1 [Example 68, 4-Benzylcarbamoyl-2-cyclopropylmethyl-6-(4-methoxyphenyl)-2H-pyridazin-3-one] | 119.7 to 120.1 °C |
| COc1ccc(-c2cc(C(=O)NCc3ccccn3)c(=O)n(CC3CC3)n2)cc1 [Example 69, 2-Cyclopropylmethyl-6-(4-methoxyphenyl)-4-(2-pyridylmethyl)carbamoyl-2H-pyridazin-3-one] | 98.6 to 99.3 °C |
| COc1ccc(-c2cc(C(=O)Nc3ccncc3)c(=O)n(CC3CC3)n2)cc1 [Example 70, 2-Cyclopropylmethyl-6-(4-methoxyphenyl)-4-(4-pyridyl)carbamoyl-2H-pyridazin-3-one] | 181.3 to 181.5 °C |
| COc1ccc(-c2cc(C(=O)Nc3ccccc3)c(=O)n(CC3CC3)n2)cc1 [Example 71, 2-Cyclopropylmethyl-6-(4-methoxyphenyl)-4-phenylcarbamoyl-2H-pyridazin-3-one] | 162.8 to 163.3 °C |
| CCCNC(=O)c1cc(-c2ccc(OC)cc2)nn(CC2CCCC2)c1=O [Example 74, 2-Cyclopentylmethyl-6-(4-methoxyphenyl)-4-n-propylcarbamoyl-2H-pyridazin-3-one] | 109.9 to 110.2 °C |
| COc1ccc(-c2cc(C(=O)NCc3ccccc3)c(=O)n(CC3CCCC3)n2)cc1 [Example 75, 4-Benzylcarbamoyl-2-cyclopentylmethyl-6-(4-methoxyphenyl)-2H-pyridazin-3-one] | 107.6 to 108.1 °C |
| COc1ccc(-c2cc(C(=O)NCc3ccccn3)c(=O)n(CC3CCCC3)n2)cc1 [Example 76, 2-Cyclopentylmethyl-6-(4-methoxyphenyl)-4-(2-pyridylmethyl)carbamoyl-2H-pyridazin-3-one] | 126.6 to 127.5 °C |
